Here are results for eight molecules from ChEMBL document CHEMBL1201862, “PubChem BioAssay data set” (2004).

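These data come from cells grown in 96-well plates and exposed to compound for 48 hours at five concentrations. At the GI50, growth is halved.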 Activity calls are given as the source filed them. Cut-off read from the data, not from the text of the source: active = GI50 up to about 1.1 µM and inactive = higher.

Test systems include A498; A549; HCT-15; HT-29; K562; KM12; M14; MCF7; MOLT-4; NCI-H226; NCI-H23; OVCAR-3; RXF 393; SF-268; SK-MEL-5; SK-OV-3; SNB-75; UACC-62; RPMI-8226; SK-MEL-2.
Holding throughout (test): NCI anticancer screen, dose series, 48 h

As to `C(/C=N/c1ccccc1)=C(/Nc1ccccc1)C12CC3CC(CC(C3)C1)C2`, the GI50 is 23.8 µM (inactive) with A498; 24.1 µM (inactive) in the assay with A549; 14.1 µM with HCT-15; 12.6 µM (inactive) with HT-29; 7.23 µM (inactive) with K562; 17 µM (inactive) with KM12. Moreover, the GI50 was 12.7 µM (inactive) in the assay on M14; 20.5 µM (inactive) with MCF7; 5.73 µM (inactive) in the assay with MOLT-4; 19.2 µM (inactive) in the assay with NCI-H226; 18.3 µM (inactive) with NCI-H23; 6.85 µM (inactive) in the assay on OVCAR-3. For the same molecule, the GI50 was 17.1 µM (inactive) in the assay on RXF 393; 19.1 µM (inactive) in the assay on SF-268; 14.7 µM (inactive) in the assay on SK-MEL-5; 16.4 µM (inactive) in the assay on SK-OV-3; 20.9 µM (inactive) in the assay on SNB-75; 12.1 µM (inactive) in the assay with UACC-62.

Take `CCN(CC)Cc1ccc2cccnc2c1O`: the GI50 was 16.3 µM (inactive) in the assay with A498; 6.34 µM (inactive) in the assay on A549; 0.365 µM with HCT-15; 2.9 µM (inactive) with HT-29; 2.15 µM (inactive) in the assay with K562; 3.27 µM (inactive) in the assay on MCF7. In addition, the GI50 in the assay on MOLT-4 is 1.93 µM (inactive); with NCI-H226 it was 6.08 µM (inactive); in the assay with NCI-H23, 6.67 µM (inactive); in the assay with OVCAR-3, 2.88 µM (inactive); in the assay on RPMI-8226, 3.1 µM (inactive); in the assay on RXF 393 it was 93.1 µM (inactive). Further, the GI50 in the assay with SF-268 was 22.6 µM (inactive); in the assay with SK-MEL-2 it was 20.1 µM (inactive); with SK-MEL-5, 3.54 µM (inactive); in the assay with SK-OV-3 it was 7.01 µM (inactive); with SNB-75, 0.577 µM (active); in the assay with UACC-62, 5.92 µM (inactive).

Consider `O=C1NC(c2cccc3ccccc23)Nc2ccc(O)cc21` (stereo unspecified), for which the GI50 with A498 was 23.9 µM (inactive); with A549 it was 33.4 µM (inactive); in the assay with HCT-15, 11 µM; in the assay on HT-29, 40.5 µM (inactive); in the assay with K562 it was 8.57 µM (inactive); with KM12, 23.4 µM (inactive). Moreover, the GI50 in the assay on MCF7 is 16.1 µM (inactive); in the assay with MOLT-4, 9.48 µM (inactive); with NCI-H226, 19.5 µM (inactive); in the assay with NCI-H23 it was 34 µM (inactive); in the assay with OVCAR-3 it was 24.5 µM (inactive); in the assay on RPMI-8226, 24.2 µM (inactive). Further, the GI50 with RXF 393 was 31 µM (inactive); in the assay with SF-268, 35.6 µM (inactive); in the assay on SK-MEL-2, 20.4 µM (inactive); in the assay with SK-MEL-5, 23.8 µM (inactive); with SK-OV-3, 41.1 µM (inactive); with SNB-75, 38.6 µM (inactive). Besides, in the assay on UACC-62, the GI50 was 21 µM (inactive).

Consider `CCN1CCC(O)(/C=C/c2ccccc2C)C(C(=O)/C=C/c2ccccc2C)C1` (stereo unspecified), for which the GI50 is 1.91 µM (inactive) in the assay on A498; 3.1 µM (inactive) with A549; 1.56 µM in the assay on HCT-15; 2.63 µM (inactive) with HT-29; 3.07 µM (inactive) in the assay on K562; 2.04 µM (inactive) in the assay on M14. Besides, the GI50 in the assay on MCF7 was 3.15 µM (inactive); with MOLT-4, 2.38 µM (inactive); with NCI-H226, 3.79 µM (inactive); with NCI-H23, 1.8 µM (inactive); with OVCAR-3, 2.25 µM (inactive); in the assay with RXF 393, 1.92 µM (inactive). For the same molecule, the GI50 is 3.87 µM (inactive) in the assay with SF-268; 2.33 µM (inactive) in the assay with SK-MEL-2; 1.56 µM (inactive) in the assay on SK-MEL-5; 6.14 µM (inactive) in the assay on SK-OV-3; 4.92 µM (inactive) in the assay on SNB-75; 2.97 µM (inactive) with UACC-62.

`COc1ccc(/C=C/c2cnccn2)cc1OC`: the GI50 with A498 is > 10 µM (inactive); in the assay on A549 it was > 10 µM (inactive); with HCT-15 it was above 10 µM; in the assay on HT-29, > 10 µM (inactive); with KM12, > 10 µM (inactive); in the assay with M14 it was > 10 µM (inactive). Moreover, the GI50 with MCF7, with NCI-H226, in the assay with NCI-H23, in the assay with OVCAR-3, in the assay on RXF 393 and in the assay with SF-268 was > 10 µM (inactive) each time. Besides, the GI50 in the assay on SK-MEL-2, in the assay with SK-MEL-5, in the assay with SK-OV-3, in the assay on SNB-75 and in the assay with UACC-62 was > 10 µM (inactive) each time.

Turning to `CCCCC(NC(=O)CC)C(=O)O` (stereo unspecified), the GI50 in the assay with A498 was > 100 µM (inactive); in the assay on A549, > 100 µM (inactive); in the assay with HCT-15 it was above 100 µM; in the assay on HT-29, > 100 µM (inactive); in the assay on K562, > 100 µM (inactive); with KM12 it was > 100 µM (inactive). Also, the GI50 with MCF7, with MOLT-4, in the assay on NCI-H226, in the assay with NCI-H23, in the assay on OVCAR-3 and in the assay with RPMI-8226 was > 100 µM (inactive) throughout. Further, the GI50 in the assay with SF-268, with SK-MEL-2, in the assay on SK-MEL-5, in the assay with SK-OV-3, in the assay on SNB-75 and in the assay with UACC-62 was > 100 µM (inactive) in each case.

Take `CCOC(=O)c1c2ccccc2n2c(=O)n(-c3ccccc3)nnc12`: the GI50 in the assay with A498 is > 21.2 µM (inactive); with A549, 63.4 µM (inactive); in the assay on HCT-15, above 76.9 µM; in the assay with K562, 16.6 µM (inactive); in the assay on KM12, 61 µM (inactive); in the assay on M14, 59 µM (inactive). For the same molecule, the GI50 was 0.923 µM (active) in the assay with MCF7; > 40.2 µM (inactive) in the assay with NCI-H226; > 87.1 µM (inactive) in the assay on NCI-H23; 17.3 µM (inactive) in the assay on OVCAR-3; 15.3 µM (inactive) in the assay with RPMI-8226; > 55.6 µM (inactive) in the assay on RXF 393. Besides, the GI50 in the assay on SF-268 is > 100 µM (inactive); in the assay with SK-MEL-2 it was > 25.8 µM (inactive); in the assay with SK-MEL-5 it was 15.7 µM (inactive); in the assay with SNB-75, 27.2 µM (inactive); in the assay with UACC-62, 10.4 µM (inactive).

For the molecule `Nc1ncnc2c1ncn2C=C=CCO`, the GI50 in the assay with A498 was > 100 µM (inactive); in the assay on HCT-15, above 100 µM; with HT-29, > 100 µM (inactive); with K562 it was > 100 µM (inactive); in the assay on KM12, > 100 µM (inactive); in the assay on M14 it was > 100 µM (inactive). Further, the GI50 in the assay with MCF7, in the assay with MOLT-4, in the assay on NCI-H226, with NCI-H23, in the assay on OVCAR-3 and in the assay with RPMI-8226 was > 100 µM (inactive) each time. Besides, the GI50 in the assay with RXF 393, with SK-MEL-2, in the assay with SK-MEL-5 and in the assay on SNB-75 was > 100 µM (inactive) each time.
